Experimental data taken from patent US20020137929A1, “1 - (3-heterocyclylphenyl) isothiourea, -isourea, -guanidine and -amidine herbicidal agents” (Intellectual Property Department, BASF Aktiengesellschaft, priority 1998, published 2002).

How the values were obtained:
[1] = tested on: IPOHE (Morningglory, Ivyleaf); assay: Postemergence herbicidal evaluation; format: in vivo, Ipomoea hederacea; conditions: postemergence
Outline: (§1)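 Visual 0-9 injury score (stand, vigor, malformation, size, chlorosis, appearance vs untreated) taken four to five weeks post-spray, averaged across repeat tests. Test plants about two weeks old; foliar spray of acetone/water (1:1) with 0.5% surfactant delivering ~0.0156-0.500 kg active/ha.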

ECHCG (Barnyardgrass) = assay: Preemergence herbicidal evaluation; format: in vivo, Echinochloa crus-galli; conditions: rated 4-5 weeks after treatment
Outline: (§2)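 Steps: mix seeds into potting soil; plant atop ~1 inch soil; spray compound in aqueous acetone (~0.0156-0.500 kg/ha equivalent); maintain in greenhouse with watering; rate visually 0-9 versus control at 4-5 weeks.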

ZEAMX (Corn, Field) = assay: Preemergence herbicidal evaluation; format: in vivo, Zea mays; conditions: rated 4-5 weeks after treatment
Outline: as §2

CYPIR (Rice Flatsedge) = assay: Preemergence weed control under flooded paddy conditions; format: in vivo, Cyperus iria; conditions: rated 3-4 weeks after treatment
Outline: (§3)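 Visual injury scored 0-9 against control three to four weeks post-treatment, greenhouse-grown. Application: acetone/water (50/50) solutions dosed directly into flood water (1.5-3 cm over silt loam, planted top 0.5 cm), roughly 0.0313 to 0.500 kg/ha active ingredient.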

[2] = tested on: ECHORC (Watergrass (Calif.)); assay: Postemergence weed control under flooded paddy conditions; format: in vivo, Echinochloa oryzoides; conditions: postemergence weeds, rated 3 to 4 weeks after treatment
Outline: (§4)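 Flood-water application, about 0.0313–0.500 kg/ha a.i. in aqueous/acetone 50/50 v/v; water depth 1.5–3 cm throughout. Weeds 3–5 cm, rice 1.5–2.5 leaf. Greenhouse; 0–9 visual rating vs control at 3–4 wk.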

SETVI (Foxtail, Green) [3] = assay: Preemergence herbicidal evaluation; format: in vivo, Setaria viridis; conditions: rated 4-5 weeks after treatment
Outline: as §2

[4] = tested on: TRZAWR (Wheat, Winter, cv Riband); assay: Postemergence herbicidal evaluation; format: in vivo, Triticum aestivum; conditions: postemergence
Outline: as §1

[5] = tested on: ECHORC (Watergrass (Calif.)); assay: Preemergence weed control under flooded paddy conditions; format: in vivo, Echinochloa oryzoides; conditions: rated 3-4 weeks after treatment
Outline: as §3

[6] = tested on: SAGPY (Arrowhead (Pygmaea)); assay: Postemergence weed control under flooded paddy conditions; format: in vivo, Sagittaria pygmaea; conditions: postemergence weeds, rated 3 to 4 weeks after treatment
Outline: as §4

SETVI (Foxtail, Green) [7] = assay: Postemergence herbicidal evaluation; format: in vivo, Setaria viridis; conditions: postemergence
Outline: as §1

[8] = tested on: IPOHE (Morningglory, Ivyleaf); assay: Preemergence herbicidal evaluation; format: in vivo, Ipomoea hederacea; conditions: rated 4-5 weeks after treatment
Outline: as §2

ABUTH (Velvetleaf) = assay: Preemergence herbicidal evaluation; format: in vivo, Abutilon theophrasti; conditions: rated 4-5 weeks after treatment
Outline: as §2

GALAP (Galium) = assay: Postemergence herbicidal evaluation; format: in vivo, Galium aparine; conditions: postemergence
Outline: as §1

CCOC(=O)[C@H](C)N1C(=O)CSC1=Nc1cc(-n2c(=O)cc(C(F)(F)F)n(C)c2=O)c(F)cc1Cl [Compound 76, Ethyl 2-{{2-chloro-5-[3,6-dihydro-3-methyl-2,6-dioxo-4-(trifluoromethyl)-1(2H)-pyrimidinyl]-4-fluorophenyl}imino}-α-methyl-4-oxo-3-thiazolidineacetate, L-]
IPOHE herbicidal rating ([1]; rate 0.0158 kg/ha): 9.0
IPOHE herbicidal rating ([1]; rate 0.0315 kg/ha): 9.0
IPOHE herbicidal rating ([1]; rate 0.0630 kg/ha): 9.0
Preemergence herbicidal rating ECHCG (ECHCG (Barnyardgrass); rate 0.0156 kg/ha): 0.0
Preemergence herbicidal rating ECHCG (ECHCG (Barnyardgrass); rate 0.0313 kg/ha): 0.0
Preemergence herbicidal rating ECHCG (ECHCG (Barnyardgrass); rate 0.0625 kg/ha): 1.0
Preemergence herbicidal rating ECHCG (ECHCG (Barnyardgrass); rate 0.1250 kg/ha): 7.0
Preemergence herbicidal rating ECHCG (ECHCG (Barnyardgrass); rate 0.2500 kg/ha): 9.0
Preemergence herbicidal rating ZEAMX (ZEAMX (Corn, Field); rate 0.0156 kg/ha): 0.0
Preemergence herbicidal rating ZEAMX (ZEAMX (Corn, Field); rate 0.0313 kg/ha): 1.0
Preemergence herbicidal rating ZEAMX (ZEAMX (Corn, Field); rate 0.0625 kg/ha): 5.0
Preemergence herbicidal rating ZEAMX (ZEAMX (Corn, Field); rate 0.1250 kg/ha): 7.0
Preemergence herbicidal rating ZEAMX (ZEAMX (Corn, Field); rate 0.2500 kg/ha): 7.0
CYPIR herbicidal effect rating (CYPIR (Rice Flatsedge); 0.0313 kg/ha): 0.0
CYPIR herbicidal effect rating (CYPIR (Rice Flatsedge); 0.0625 kg/ha): 0.0
CYPIR herbicidal effect rating (CYPIR (Rice Flatsedge); 0.1250 kg/ha): 0.0
CYPIR herbicidal effect rating (CYPIR (Rice Flatsedge); 0.2500 kg/ha): 6.0
Herbicidal rating ECHORC ([2]; Rate 0.0313 kg/ha): 4.0
Herbicidal rating ECHORC ([2]; Rate 0.0625 kg/ha): 7.0
Herbicidal rating ECHORC ([2]; Rate 0.1250 kg/ha): 9.0
Herbicidal rating ECHORC ([2]; Rate 0.2500 kg/ha): 9.0
Preemergence herbicidal rating SETVI (SETVI (Foxtail, Green) [3]; rate 0.0156 kg/ha): 0.0
Preemergence herbicidal rating SETVI (SETVI (Foxtail, Green) [3]; rate 0.0313 kg/ha): 6.0
Preemergence herbicidal rating SETVI (SETVI (Foxtail, Green) [3]; rate 0.0625 kg/ha): 7.0
Preemergence herbicidal rating SETVI (SETVI (Foxtail, Green) [3]; rate 0.1250 kg/ha): 9.0
Preemergence herbicidal rating SETVI (SETVI (Foxtail, Green) [3]; rate 0.2500 kg/ha): 9.0
TRZAWR herbicidal rating ([4]; rate 0.0158 kg/ha): 3.5
TRZAWR herbicidal rating ([4]; rate 0.0315 kg/ha): 5.0
TRZAWR herbicidal rating ([4]; rate 0.0630 kg/ha): 5.5
ECHORC herbicidal effect rating ([5]; 0.0313 kg/ha): 4.0
ECHORC herbicidal effect rating ([5]; 0.0625 kg/ha): 7.0
ECHORC herbicidal effect rating ([5]; 0.1250 kg/ha): 9.0
ECHORC herbicidal effect rating ([5]; 0.2500 kg/ha): 9.0
Herbicidal rating SAGPY ([6]; Rate 0.0313 kg/ha): 0.0
Herbicidal rating SAGPY ([6]; Rate 0.0625 kg/ha): 0.0
Herbicidal rating SAGPY ([6]; Rate 0.1250 kg/ha): 4.0
Herbicidal rating SAGPY ([6]; Rate 0.2500 kg/ha): 4.0
SETVI herbicidal rating (SETVI (Foxtail, Green) [7]; rate 0.0158 kg/ha): 1.0
SETVI herbicidal rating (SETVI (Foxtail, Green) [7]; rate 0.0315 kg/ha): 2.0
SETVI herbicidal rating (SETVI (Foxtail, Green) [7]; rate 0.0630 kg/ha): 9.0
Preemergence herbicidal rating IPOHE ([8]; rate 0.0156 kg/ha): 0.0
Preemergence herbicidal rating IPOHE ([8]; rate 0.0313 kg/ha): 0.0
Preemergence herbicidal rating IPOHE ([8]; rate 0.0625 kg/ha): 0.0
Preemergence herbicidal rating IPOHE ([8]; rate 0.1250 kg/ha): 9.0
Preemergence herbicidal rating IPOHE ([8]; rate 0.2500 kg/ha): 9.0
Preemergence herbicidal rating ABUTH (ABUTH (Velvetleaf); rate 0.0156 kg/ha): 1.0
Preemergence herbicidal rating ABUTH (ABUTH (Velvetleaf); rate 0.0313 kg/ha): 1.0
Preemergence herbicidal rating ABUTH (ABUTH (Velvetleaf); rate 0.0625 kg/ha): 9.0
Preemergence herbicidal rating ABUTH (ABUTH (Velvetleaf); rate 0.1250 kg/ha): 9.0
Preemergence herbicidal rating ABUTH (ABUTH (Velvetleaf); rate 0.2500 kg/ha): 9.0
GALAP herbicidal rating (GALAP (Galium); rate 0.0158 kg/ha): 1.0
GALAP herbicidal rating (GALAP (Galium); rate 0.0315 kg/ha): 6.0
GALAP herbicidal rating (GALAP (Galium); rate 0.0630 kg/ha): 7.0
